According to patent US20250326794A1, “ANTI-CANCER LEUCINE-RICH PEPTIDES AND USES THEREOF” (KING'S COLLEGE LONDON, priority 2019, published 2025):

Tests used:
[1] = test system: HMLER-shEcad (human breast cancer stem cell); assay: cells; settings: 72 h
Excerpt: (§1) HMLER (human mammary endothelial cancer cells), HMLER-shEcad (human mammary endothelial cancer stem cells), and MCF-10A (healthy human mammary endothelial) cells were maintained in Mammary Epithelial Cell Growth Medium (MEGM) with supplements and growth factors: bovine pituitary extract (BPE), hydrocortisone, human epidermal growth factor (hEGF), insulin, and gentamicin/amphotericin-B. HEK293T (human embryonic kidney cell), and U2OS (Homo sapiens bone osteosarcoma) cells were maintained in Dulbecco's Modified Eagle's Medium (DMEM) with a final concentration of 10% fetal bovine serum. The cells were grown in T75 flask at 310 K in a humidified atmosphere containing 5% CO2.
(§2) The colourimetric MTT (3-(4,5-dimethylthiazol-2-yl)-2,5-diphenyltetrazolium bromide) assay was used to determine the toxicity of the anticancer peptides and conventional anticancer drugs. 5×10^3 cells were seeded in each well of a 96-well microplate. The cells were incubated overnight. Elevated concentrations of the compounds (0, 0.1, 0.2, 0.4, 0.8, 1.6, 3.1, 6.3, 12.5, 25, 50 and 100 μM) were added and incubated for 72 hr with a total volume 200 μL. The stock solutions of the compounds were prepared as 5 mM solutions in DMSO and diluted using media or in pure water. The final concentration of DMSO in each well was either 0.5% or 0% and this amount was present in the untreated control. After 72 hr, 20 μL of a 4 mg/mL solution of MTT in PBS was added to each well, and the plate was incubated for an additional 4 hr. The MEGM/MTT mixture was aspirated and 100 μL of DMSO was added to dissolve the resulting purple formazan crystals. The absorbance of the solutions in each well was read at 550 nm wavelength. Absorbance values were normalized to either DMSO-containing or non DMSO-containing control wells and plotted as concentration of test compound versus % cell viability. IC50 values were interpolated from the resulting dose dependent curves.
(§3) The peptides were screened against several different human cell lines and their cytotoxicity were determined. Cell lines utilised include MCF-10A (human breast epithelial cell), HMLER (human breast cancer bulk cell), HMLER-shEcad (human breast cancer stem cell), HEK293T (human embryonic kidney cell), and U2OS (human bone osteosarcoma).

[2] = test system: HMLER (human breast cancer bulk cell); assay: cells; settings: 72 h
Excerpt: as §1, §2, §3

[3] = test system: HEK293T (human embryonic kidney cell); assay: cells; settings: 72 h
Excerpt: as §1, §2, §3

[4] = ANTS/DPX liposome leakage assay, POPC vesicles; format: biochemical; settings: 0.5 mM vesicles; for Peptide Concentration-induced 50% ANTS/DPX leakage at pH 4.8, POPC Vesicle: pH 4.8, lipid per peptide; for Peptide Concentration-induced 50% ANTS/DPX leakage at pH 7.4, POPC Vesicle: pH 7.4, lipid per peptide
Description: (§4) In brief, 0.5 mM POPC vesicles (grey) or POPC:POPG vesicles (ratio 3:1, black) were incubated with peptide concentrations of 0, 0.02, 0.04, 0.08, 0.16, 0.32, 0.64, 1.25, 2.5, 5, 10, and 20 μM in each A) hydrochloric acid-adjusted phosphate buffered saline (1×, pH 4.8) and B) phosphate buffered saline (1×, pH 7.4).
(§5) The lipids 1-palmitoyl-2-oleoyl-sn-glycero-3-phosphocholine (POPC), 1-palmitoyl-2-oleoyl-snglycero-3-phospho-(1′-rac-glycerol) (POPG) were purchased from Avanti Polar Lipids and dissolved in chloroform. Large unilamellar vesicles (LUVs) were produced by extrusion through 100 nm pore filter using an extruder and filters purchased from Avanti Polar Lipids.
(§6) 5 mM ANTS (8-aminonaphthalene-1,3,6-trisulfonic acid, disodium salt) and 12.5 mM DPX (p-xylene-bis-pyridinium bromide) were entrapped in 0.1 μm diameter extruded vesicles with lipids. Gel filtration chromatography using a Sephadex G-100 (GE Healthcare Life Sciences Inc) was used to remove external free ANTS/DPX from LUVs with entrapped contents. LUVs were diluted to 0.5 mM and used to measure the leakage activity by addition of aliquots of peptides. Leakage was measured after 3 h incubation. 10% Triton was used as the positive control to measure the maximum leakage of the vesicle. Fluorescence emission spectra were recorded using excitation and emission wavelength of 350 nm and 510 nm for ANTS/DPX using a BioTek Synergy H1 Hybrid Multi-Mode Reader.
(§7) Table 4 illustrates peptide concentration-induced 50% ANTS/DPX liposome leakage. 0.5 mM POPC and 3POPC/1POPG vesicles were fixed and incubated with titrated peptide concentration ([…]) each in phosphate buffered saline (1×, pH 7.4) and hydrochloric acid-adjusted phosphate buffered saline (1×, pH 4.8). The values are shown as lipid per peptide. †N-terminus is free, C-terminus: —W—NH2.

[5] = test system: U2OS (human bone osteosarcoma); settings: 72 h
Excerpt: as §1, §2, §3

[6] = ANTS/DPX liposome leakage assay, 3POPC/1POPG vesicles; format: biochemical; settings: 0.5 mM vesicles; for Peptide Concentration-induced 50% ANTS/DPX leakage at pH 4.8, 3POPC/1POPG Vesicle: pH 4.8, lipid per peptide; for Peptide Concentration-induced 50% ANTS/DPX leakage at pH 7.4, 3POPC/1POPG Vesicle: pH 7.4, lipid per peptide
Description: as §4, §5, §6, §7

[7] = Tryptophan fluorescent binding assay, 3POPC/1POPG vesicles; settings: 50 μM peptide, PBS pH 7.4, lipid per peptide
Description: (§8) In brief, 50 μM peptides were fixed and incubated with titrated POPC vesicles (black) or 3POPC/1POPG vesicles (grey) at concentrations of 0, 12.5, 25, 50, 100, 250, 500, 1000, 2500, and 5000 μM in phosphate buffered saline (1×, pH 7.4). The lipid concentration that causes 50% peptide binding was determined using a tryptophan fluorescent binding assay and the values are shown as lipid per peptide.
as §5
(§9) Peptides (50 μM) and POPC/POPG LUVs (600 μM) were prepared in 10 mM phosphate buffer (pH 7.0). The solutions were incubated and measured after 60 minutes. Excitation was fixed at 280 nm (slit 9 nm) and emission was collected from 300 to 450 nm (slit 9 nm). The spectra were recorded using a Synergy H1 Hybrid Multi-Mode Reader (FIG. 3A) and Cytation™ 5 Cell Imaging Multi-Mode Reader (FIG. 2) from BioTek and were averaged over 3 scans.
(§10) Table 3 illustrates the lipid concentration-induced 50% peptide binding onto a liposome. 50 μM peptide was fixed and incubated with titrated lipid (POPC vesicles or 3POPC/1POPG vesicles) at concentrations of 0, 12.5, 25, 50, 100, 250, 500, 1000, 2500, and 5000 μM in phosphate buffered saline (1×, pH 7.4). The lipid concentration that causes 50% peptide binding was determined using tryptophan fluorescent binding assay and the values are shown as lipid per peptide. †N-terminus is free, C-terminus: —W—NH2.

[8] = Tryptophan fluorescent binding assay, POPC vesicles; settings: 50 μM peptide, PBS pH 7.4, lipid per peptide
Description: as §8, §5, §9, §10

Row | SMILES | IC50 [1] [µM] | IC50 [2] [µM] | IC50 [3] [µM] | Peptide Concentration-induced 50% ANTS/DPX leakage at pH 4.8, POPC Vesicle [4] [L/P] | Peptide Concentration-induced 50% ANTS/DPX leakage at pH 7.4, POPC Vesicle [4] [L/P] | IC50 [5] [µM] | Peptide Concentration-induced 50% ANTS/DPX leakage at pH 4.8, 3POPC/1POPG Vesicle [6] [L/P] | Peptide Concentration-induced 50% ANTS/DPX leakage at pH 7.4, 3POPC/1POPG Vesicle [6] [L/P] | Lipid Concentration-induced 50% Peptide Binding, 3POPC/1POPG Vesicle [7] [L/P] | Lipid Concentration-induced 50% Peptide Binding, POPC Vesicle [8] [L/P]
1 | CC(C)C[C@H](NC(=O)CN)C(=O)N[C@@H](CC(C)C)C(=O)N[C@@H](CCCCN)C(=O)N[C@@H](CC(C)C)C(=O)N[C@@H](CC(C)C)C(=O)N[C@@H](CCC(=O)O)C(=O)N[C@@H](CC(C)C)C(=O)N[C@@H](CC(C)C)C(=O)N[C@@H](CC(C)C)C(=O)N[C@@H](CCCCN)C(=O)N[C@@H](C)C(=O)N[C@@H](C)C(=O)NCC(=O)N[C@@H](Cc1c[nH]c2ccccc12)C(N)=O [KEK] | 1.35 ± 0.07 | 1.6 ± 0.14 | 3.2 ± 0.14 | 110 | 1173 | 8.15 ± 0.49 | 126 | 438 | 0.50 | 0.47
2 | CC(C)C[C@H](NC(=O)CN)C(=O)N[C@@H](CC(C)C)C(=O)N[C@@H](CCCCN)C(=O)N[C@@H](CC(C)C)C(=O)N[C@@H](CC(C)C)C(=O)N[C@@H](Cc1c[nH]cn1)C(=O)N[C@@H](CC(C)C)C(=O)N[C@@H](CC(C)C)C(=O)N[C@@H](CC(C)C)C(=O)N[C@@H](CCC(=O)O)C(=O)N[C@@H](C)C(=O)N[C@@H](C)C(=O)NCC(=O)N[C@@H](Cc1c[nH]c2ccccc12)C(N)=O [KHE] | 2.92 ± 0.17 | 3.7 ± 0.14 | 26 ± 2.83 | 183 | 981 | 53 ± 2.83 | 156 | 188 | 0.71 | 0.88
3 | CC(C)C[C@H](NC(=O)CN)C(=O)N[C@@H](CC(C)C)C(=O)N[C@@H](CC(=O)O)C(=O)N[C@@H](CC(C)C)C(=O)N[C@@H](CC(C)C)C(=O)N[C@@H](CCCCN)C(=O)N[C@@H](CC(C)C)C(=O)N[C@@H](CC(C)C)C(=O)N[C@@H](CC(C)C)C(=O)N[C@@H](Cc1c[nH]cn1)C(=O)N[C@@H](C)C(=O)N[C@@H](C)C(=O)NCC(=O)N[C@@H](Cc1c[nH]c2ccccc12)C(N)=O [DKH] | 2.8 ± 0.28 | 3.45 ± 0.07 | 6.15 ± 1.34 | 41 | 614 | 21.1 ± 3.01 | 58 | 274 | 0.46 | 10.00
4 | CC(C)C[C@H](NC(=O)CN)C(=O)N[C@@H](CC(C)C)C(=O)N[C@@H](CCC(=O)O)C(=O)N[C@@H](CC(C)C)C(=O)N[C@@H](CC(C)C)C(=O)N[C@@H](CCCCN)C(=O)N[C@@H](CC(C)C)C(=O)N[C@@H](CC(C)C)C(=O)N[C@@H](CC(C)C)C(=O)N[C@@H](Cc1c[nH]cn1)C(=O)N[C@@H](C)C(=O)N[C@@H](C)C(=O)NCC(=O)N[C@@H](Cc1c[nH]c2ccccc12)C(N)=O [EKH] | 2.18 ± 0.31 | 2.75 ± 0.07 | 6.65 ± 1.34 | 55 | 608 | 23.8 ± 0.81 | 88 | 365 | 0.19 | 0.75
5 | CC(C)C[C@H](NC(=O)CN)C(=O)N[C@@H](CC(C)C)C(=O)N[C@@H](CCCCN)C(=O)N[C@@H](CC(C)C)C(=O)N[C@@H](CC(C)C)C(=O)N[C@@H](CCC(=O)O)C(=O)N[C@@H](CC(C)C)C(=O)N[C@@H](CC(C)C)C(=O)N[C@@H](CC(C)C)C(=O)N[C@@H](Cc1c[nH]cn1)C(=O)N[C@@H](C)C(=O)N[C@@H](C)C(=O)NCC(=O)N[C@@H](Cc1c[nH]c2ccccc12)C(N)=O [KEH] | 2.35 ± 0.07 | 3.3 ± 0.42 | 5.65 ± 0.07 | 188 | 995 | 49.2 ± 5.3 | 68 | 286 | 0.50 | 1.00
6 | CC(C)C[C@H](NC(=O)CN)C(=O)N[C@@H](CC(C)C)C(=O)N[C@@H](Cc1c[nH]cn1)C(=O)N[C@@H](CC(C)C)C(=O)N[C@@H](CC(C)C)C(=O)N[C@@H](CCCCN)C(=O)N[C@@H](CC(C)C)C(=O)N[C@@H](CC(C)C)C(=O)N[C@@H](CC(C)C)C(=O)N[C@@H](CCC(=O)O)C(=O)N[C@@H](C)C(=O)N[C@@H](C)C(=O)NCC(=O)N[C@@H](Cc1c[nH]c2ccccc12)C(N)=O [HKE] | 1.9 ± 0.42 | 2.7 ± 0.28 | 5.15 ± 0.64 | 173 | 692 | 16 ± 0.78 | 94 | 365 | 0.25 | 0.75
